# Reference: ChEMBL document CHEMBL3507680, “University of Dundee, Gates Library screen for HepG2 cell viability”
# Test: Human HepG2 cell viability assay in 384 well format
# Type: toxicity, cell-based
# Set-up: dose 125 nL, time 70.5 hour; concentration not given beside the values
# Details: HepG2 cells, read-out: Inhibition
row,SMILES,cytotoxicity at 70.5 h [%]
1,O=C(c1nc(Cc2c[nH]c3ccccc23)no1)N1CCCCC1,-7.41
2,CCCc1nc2c(c(C)c(C)n2CCN(C)C)c(N)c1CC,3.64
3,Cc1cc(C)n2c(CCCNS(=O)(=O)c3cccs3)nnc2n1,-10.2
4,CCc1c(-c2ccccc2)nc2c(c(C)c(C)n2CCN(C)C)c1N,15.2
5,COC(=O)CNC(=O)Cn1ccc2ccc(F)cc21,-3.86
6,Cc1c(-c2ccccc2)nc2c(c(C)c(C)n2CCN(C)C)c1N,13.6
7,COc1cccc(-c2nc(C)c(C(=O)N[C@H](CO)CC(C)C)s2)c1,-22.7
8,CC(C)Cc1nc(OCC(N)=O)c(C#N)c2c1CCCC2,-9.41
9,COCCNC(=O)Cn1ccc2ccc(F)cc21,-3.63
10,CC[C@H](C)[C@H](NC(=O)Cn1ccc2ccc(F)cc21)C(=O)OC,-1.27
11,O=C1CCCC2=C1C(c1ccc(F)cc1F)Nc1nonc1N2 (stereo not drawn),12.1
12,CC(C)CNC(=O)c1nc(COc2ccc3c(c2)OCO3)no1,-7.9
13,CC[C@H](C)[C@H](NC(=O)c1cccc(-n2cnnn2)c1)C(=O)OC,-11
14,O=C(Cc1csc(-c2ccccc2F)n1)NCc1ccc(C(=O)O)cc1,-10.6
15,CC(C)CC(NC(=O)c1ccco1)c1nnc2ccccn12 (stereo not drawn),-24.3
16,O=C(NCCN1CCOCC1)c1nc2ccccc2c(=O)[nH]1,-23.1
17,CNC(=O)c1nc(COc2ccc3c(c2)OCO3)no1,-9.82
18,CCC(C)[C@H](NC(=O)c1ccc(F)cc1-n1cnnn1)C(=O)OC (stereo partly drawn),-10.7
19,CC(=O)Nc1ccc(OCc2noc(C(=O)N3CCCCC3)n2)cc1,-18.1
20,CC(C)NC(=O)Cc1cnc(-n2cccc2)s1,-24.2
21,Cn1nnnc1SC1CCc2ccccc2NC1=O (stereo not drawn),-24.7
22,O=C(NC1CC1)c1nc(COc2ccc3c(c2)OCO3)no1,-9.12
23,COCCNC(=O)c1cc(-n2cccc2)ccc1Cl,-23.7

row,SMILES,cytotoxicity at 70.5 h [%]
1,CN1C(=O)C2(CC(=O)Nc3[nH]ncc32)c2cc(F)ccc21 (stereo not drawn),-19.4
2,COc1ccc(N2Cc3nc(=O)n(Cc4cccc(F)c4)n3C2=O)cc1,-13
3,O=S1(=O)CCC(S(=O)(=O)c2cccc(S(=O)(=O)N3CCCCCC3)c2)C1 (stereo not drawn),-10.9
4,CN1C(=O)C2(CC(=O)Nc3c2cnn3C(C)(C)C)c2c(Cl)cccc21 (stereo not drawn),-19.1
5,O=C(NCCc1c[nH]cn1)c1ccc2c(c1)C(=O)N(C1CCCC1)C2=O,-1.68
6,N#Cc1nc(COc2ccc3c(c2)OCO3)oc1NC1CCCCC1,-28.5
7,CC(C)CCN1C(=O)c2ccc(C(=O)NCCc3c[nH]cn3)cc2C1=O,-4.63
8,Cc1cccc2c1N(C)C(=O)C21CC(=O)Nc2c1cnn2C(C)(C)C (stereo not drawn),-18.4
9,CC(C)[C@H](NC(=O)NC1CCS(=O)(=O)C1)C(=O)NCc1ccc(Cl)cc1 (stereo partly drawn),-18.2
10,COCCNc1nc(N2CCCC2)nc2nccnc12,26.5
11,Cc1cc(C)n(Cc2ccc(-c3noc(C(=O)NCCO)n3)cc2)n1,-18.6
12,Cc1occc(=O)c1OCc1noc(C(=O)NC2CCCC2)n1,-16.2
13,Cn1cnnc1SC1CCc2ccccc2NC1=O (stereo not drawn),-20.5
14,COCCCN1C(=O)c2ccc(C(=O)NCCc3c[nH]cn3)cc2C1=O,1.41
15,COc1cc2c(cc1OC)C(=O)C(Sc1nncn1C)C2 (stereo not drawn),-4.34
16,CNC(=O)c1nc(CC(=O)Nc2cccc(C(F)(F)F)c2)no1,22.3
17,CC[C@@H](C)[C@H](NC(=O)NC1CCS(=O)(=O)C1)C(=O)NCc1ccncc1 (stereo partly drawn),10.2
18,CC(C)[C@H](NC(=O)NC1CCS(=O)(=O)C1)C(=O)NCc1ccccc1 (stereo partly drawn),-19
19,COC(=O)[C@@H](NC(=O)c1snnc1-c1ccc(OC)cc1)C(C)C,11.1
20,CCc1c(C)sc2nc3n(CCN(C)C)nc(SC)n3c(=O)c12,20.8
21,CCN(CC)C(=O)CSc1sc2c(O)cc(=O)[nH]c2c1C(N)=O,-14.3
22,CCOC(=O)c1nc(CC(=O)Nc2ccc3cc[nH]c3c2)no1,-9.72
23,Cc1nc(NC(=O)c2c(-n3cnnn3)sc3c2CCCC3)sc1C,-10.4

row,SMILES,cytotoxicity at 70.5 h [%]
1,CNC(=O)c1nc(CC(=O)Nc2ccc3cc[nH]c3c2)no1,-13.1
2,O=C(NCCc1c[nH]c2ccccc12)C1(n2cnnn2)CCCCC1,-28.6
3,COc1cccc(NC(=O)Cn2c(=O)nc(N)c3cc(C)sc32)c1,-17.3
4,CCc1c(C)sc2nc3n(CC(N)=O)nc(SC)n3c(=O)c12,5.38
5,Cc1csc(NC(=O)c2ccc(NC(=O)N3CCOCC3)cc2)n1,3.47
6,CCc1c(C)sc2c1c(N)nc(=O)n2CCN1CCCCC1,5.23
7,C=C(C)Cn1c(=O)nc(N)c2c(-c3ccc(OC)cc3)csc21,-9.64
8,CCc1c(C)sc2nc3n(CCN4CCOCC4)nc(SC)n3c(=O)c12,5.28
9,Cc1cc2c(N)nc(=O)n(CC(=O)Nc3cccc(Cl)c3)c2s1,-13.3
10,Cc1cc2c(N)nc(=O)n(CC(=O)Nc3ccccc3)c2s1,8.01
11,Cc1occc(=O)c1OCC(=O)N1CCN(c2cccc(Cl)c2)CC1,2.39
12,CC(C)c1ccc(C2CC(=O)Nc3c2cnn3C)cc1 (stereo not drawn),-15.6
13,Cn1ncc2c1NC(=O)CC2c1cccs1 (stereo not drawn),-4.29
14,COCCNC(=O)CNC(=O)c1nc(Cc2c(Cl)cccc2Cl)no1,-8.7
15,Cc1cnc(NC(=O)c2csc(NC3CCCC3)n2)s1,43.8
16,COc1cc(C2CC(=O)Nc3c2cnn3C)ccc1O (stereo not drawn),46.1
17,COCc1nnn2c1CN(C(=O)c1ccnnc1)CCC2,8.76
18,O=C1[C@@H]2CCN(Cc3ccc(F)cc3)C[C@@H]2OCCN1c1cccnc1,-3.72
19,Cc1ccc(N2CCC3(CCN(C(=O)C4CCOC4)CC3)CC2)nn1 (stereo not drawn),-3.84
20,O=C(NC[C@H]1OC[C@@H]2CCN(c3ncccn3)C[C@@H]21)c1ccnnc1,1.23
21,Cn1ccnc1CN1CCCN(C(=O)c2ccc3cc[nH]c3c2)CC1,-7.08
22,Cc1ncc2c(n1)CN(CC(=O)Nc1nccs1)CC2,-10.4
23,CN(CC(=O)Nc1ccncc1)C1CCCN(c2cccnn2)C1 (stereo not drawn),-3.61

row,SMILES,cytotoxicity at 70.5 h [%]
1,O=C(NCCOc1ccc2c(c1)OCO2)C1CC(=O)N(C2CC2)C1 (stereo not drawn),3.82
2,CSc1nccn1-c1cccc(C(=O)NCCN2CCS(=O)(=O)CC2)c1,0.708
3,CSc1nccn1-c1cccc(C(=O)NCC(F)(F)F)c1,-0.984
4,CCC1CCCCN1Cc1nc2c(cnn2C)c(=O)[nH]1 (stereo not drawn),-0.935
5,CCCNC(=O)C(C)N1CCC(C(=O)Nc2cnn(CC)c2)CC1 (stereo not drawn),-4.58
6,CCn1cc(NC(=O)C2CCN(CC(=O)NCC(C)C)CC2)cn1,-5.15
7,Cc1cc(C)n(CC2CN(c3ccc(C#N)cn3)CCO2)n1 (stereo not drawn),-3.22
8,NC(=O)CC1CCCCN1C(=O)c1cccc(C(F)(F)F)c1 (stereo not drawn),-0.919
9,Cc1ccc(C(=O)N2CCCCC2CNC(N)=O)cc1F (stereo not drawn),0.819
10,Cc1cccc(-c2nc(CNC3CCc4ncnn4C3)no2)c1 (stereo not drawn),-4.91
11,c1ccc(-c2nc(CNC3CCc4ncnn4C3)no2)cc1 (stereo not drawn),-3.91
12,Cc1nccn1C1CCCN(C(=O)c2ccc(N(C)C)nn2)C1 (stereo not drawn),-4.18
13,Cc1nccn1C1CCCN(C(=O)c2ccc(-n3cccn3)nc2)C1 (stereo not drawn),0.896
14,COc1ccccc1OCCC(=O)N1CCCC1Cn1cccn1 (stereo not drawn),2.97
15,O=C(CCOc1ccc(F)cc1)N1CCCC1Cn1cccn1 (stereo not drawn),-2.78
16,Cn1cc(-c2nc(C(=O)N3CCCC3Cn3cccn3)cs2)cn1 (stereo not drawn),-4.01
17,CCCc1n[nH]c(C2CN(C(=O)c3n[nH]c4ccccc34)CCO2)n1 (stereo not drawn),-6.7
18,CCCc1n[nH]c(C2CN(C(=O)c3ccc4c(c3)COC4)CCO2)n1 (stereo not drawn),-4.22
19,CCCc1n[nH]c(C2CN(C(=O)c3ccc(C)[nH]c3=O)CCO2)n1 (stereo not drawn),15.4
20,CSc1nccn1-c1ccc(C(=O)NCC2CC2)cc1,-4.68
21,O=C(c1csc(C2CC2)n1)N1CCCC1Cn1cccn1 (stereo not drawn),0.252
22,COCCN1CCC(CNC(=O)C2(c3cccc(C)c3)CC2)C1 (stereo not drawn),17.2
23,COc1c(CNCCC(=O)NC2CCCC2)c(C(C)C)nn1C,0.44

row,SMILES,cytotoxicity at 70.5 h [%]
1,CCOc1ccccc1C1=CCN(C(=O)C2CCN(C)C(=O)C2)CC1 (stereo not drawn),16.3
2,CCc1cnc(CN(C(C)=O)C2CCN(CCc3ccccn3)C2)o1 (stereo not drawn),1.82
3,Cc1cccc(OCCNC(=O)CN2CCCC2Cn2cncn2)c1 (stereo not drawn),-4.68
4,O=C(CN1CCCCC1Cn1cncn1)NCCOc1ccccc1 (stereo not drawn),-1.79
5,CCOc1cc(C(=O)N2CCCC(c3noc(CC)n3)C2)ccn1 (stereo not drawn),-2.83
6,COc1ccc(C(=O)N(Cc2cnn(C)c2)C(C)C)cc1OC(F)F,-3.59
7,CCOc1cc(C(=O)N2CCCC(c3nc(C)c(C)s3)C2)ccn1 (stereo not drawn),3.48
8,Cc1nc(C2CCCN2Cc2ccc(S(=O)(=O)N(C)C)o2)no1 (stereo not drawn),-5.97
9,CC(C)CCc1nc(CN2CCOC(Cn3cncn3)C2)cs1 (stereo not drawn),-2.95
10,O=C(CS(=O)(=O)Cc1cc(Cl)c2c(c1)OCO2)N1CCCCCC1,-2.51
11,COc1ccc(C2=CCN(C(=O)C3CCS(=O)(=O)C3)CC2)cc1 (stereo not drawn),19.4
12,CNS(=O)(=O)c1ccc(C(=O)N2CCCC2c2ccncc2)o1 (stereo not drawn),-2.81
13,Cc1cc(C2CCCN2Cc2ccc(S(=O)(=O)N(C)C)o2)on1 (stereo not drawn),-1.52
14,O=C(NC1CC1)[C@H]1CN(Cc2ccc3c(c2)OCO3)C[C@H]2OCC[C@@H]12,-1.23
15,O=C1COC2(CCN(Cc3ccoc3)CC2)CN1CCn1cccn1,-2.81
16,Fc1cnc(N2CCc3nnc(COc4ccccn4)n3CC2)nc1,-3.38
17,CC(C)c1nc(-c2cc(C(=O)NCCN(C)C)c3ccccn23)cs1,-1.61
18,CN(C)Cc1nnc2n1CCN(c1cnccn1)CC2,0.405
19,CCn1ncc2c1C(COCC1CC1)N(Cc1nccs1)CC2 (stereo not drawn),-0.956
20,CCn1ncc2c1C(COCC1CC1)N(Cc1cnn(C)c1)CC2 (stereo not drawn),-3.67
21,Cc1cnc2n1CCN(C)C21CCN(CC2CC2)CC1,-0.923
